Our source for the GI50 and TGI values is PubChem BioAssay (NCI).

What all share (experiment): NCI anticancer screen, dose series, 48 h
In experiment [1] the test system is SR leukemia.
Experiment [2] deals with T-47D breast.
In experiment [3] the test system is CAKI-1 renal.
Experiment [4] deals with NCI-H226 lung.
The test system of experiment [5] is UACC-257 melanoma.
The test system of experiment [6] is SF-268 CNS.
Experiment [7] relates to OVCAR-8 ovarian.
Experiment [8] deals with MDA-MB-435.
Experiment [9] concerns SK-MEL-2 melanoma.
The test system of experiment [10] is NCI-H460 lung.

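Tested at 5 concentrations; 48 h exposure; 96-well plates; endpoints linearly interpolated, else capped at highest concentration. GI50 marks 50% less growth. TGI denotes the concentration required for complete inhibition of growth.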

Consider `O=[N+]([O-])/C=C/c1ccc([N+](=O)[O-])cc1`, for which the GI50 in experiment [1] was 2.29 µM; in [2], 2.78 µM; in [3], 4.16 µM; in experiment [4], 2.06 µM; in experiment [5], 1.88 µM; in experiment [6], 3.65 µM. Moreover, the GI50 in experiment [7] is 3.68 µM; in experiment [8] it was 1.74 µM; in [9], 14.3 µM; in experiment [10], 4.57 µM. Also, the TGI came to 8.33 µM in experiment [1]; 9.03 µM in experiment [2]; 21.1 µM in experiment [3]; 5.37 µM in experiment [4]; 5.01 µM in [5]; 12.9 µM in [6]. In addition, the TGI is 15.1 µM in [7], 3.99 µM in experiment [8], 28.1 µM in [9] and 22.6 µM in experiment [10].
In the case of `CC1(C)Cc2c(Br)c(Br)c(Br)c(OCC(O)CN3CCOCC3)c2O1` (stereo not given), the GI50 was 5.14 µM in [1]; 13.1 µM in experiment [2]; 12.3 µM in experiment [3]; 15.2 µM in experiment [4]; 19.1 µM in experiment [5]; 12.1 µM in [6]. Further, the GI50 in [7] is 11.3 µM; in [8] it was 15.5 µM; in [9], 7.64 µM; in experiment [10] it was 9.29 µM. Further, the TGI turned out to be 18.4 µM in [1]; 27.3 µM in experiment [2]; 27.4 µM in [3]; 34.9 µM in [4]; 37.8 µM in experiment [5]; 27.8 µM in [6]. Moreover, the TGI worked out at 35.4 µM in experiment [7], 31.9 µM in experiment [8], 23.8 µM in [9] and 25.8 µM in [10].
`Cc1cc2nc3c4cccc(O)c4n(CCN(C)C)c3nc2cc1C`: the GI50 in experiment [1] was 0.767 µM; in experiment [2] it was 3.8 µM; in experiment [3], 1.35 µM; in [4], 3.72 µM; in experiment [5] it was 2 µM; in experiment [6], 4.23 µM. The GI50 in experiment [7] is 1.83 µM; in experiment [8] it was 1.65 µM; in [9], 1.93 µM; in [10], 0.818 µM. Besides, the TGI in [1] amounted to 7.03 µM; in experiment [2], 27.9 µM; in experiment [3], 3.89 µM; in experiment [4], 52.9 µM; in experiment [5], 4.58 µM; in experiment [6] it was 27.6 µM. Further, the TGI in experiment [7] was determined as 10.3 µM; in experiment [8] it was 3.12 µM; in [9], 4.22 µM; in experiment [10], 6.13 µM.
On to `O=[N+]([O-])c1ccc(N=Nc2c(O)[nH]c3ccccc23)cc1`, for which the TGI was 45.9 µM in [1]; 35.8 µM in [2]; 40.4 µM in experiment [3]; 51.5 µM in experiment [4]; greater than 60.1 µM in [5]; 58.7 µM in experiment [6]. Further, the TGI in experiment [7] is 48.3 µM; in experiment [8], greater than 100 µM; in [9], greater than 100 µM; in experiment [10] it was greater than 100 µM.
For the compound `CCOC(=O)C1=C(c2ccccc2)N(c2ccc(OC)cc2)[C@]2(C#N)C(O)=C(Cl)C(Cl)=C(O)[C@]12C#N`, the GI50 in experiment [1] is 11.5 µM; in experiment [2] it was 21.2 µM; in experiment [3], 27.9 µM; in experiment [4], 20.2 µM; in experiment [5] it was 22.2 µM; in experiment [6] it was 24 µM. In addition, the GI50 in experiment [7] is 33 µM; in experiment [8] it was 18.8 µM; in [9], 32.4 µM; in [10] it was 35 µM. Besides, the TGI in experiment [1] amounted to 28.8 µM; in experiment [2] it was 44.9 µM; in experiment [3] it was 80.1 µM; in experiment [4], 42.5 µM; in experiment [5] it was 52.2 µM; in [6], 52.2 µM. Further, the TGI is greater than 100 µM in experiment [7], 37.1 µM in experiment [8], greater than 100 µM in experiment [9] and greater than 100 µM in experiment [10].
Consider `COc1ccc(-n2c(C)nc3c(c(C)nn3-c3ccccc3)c2=O)cc1`, for which the GI50 is 0.0391 µM in experiment [1]; 0.0403 µM in experiment [2]; 0.0461 µM in experiment [3]; 0.207 µM in [4]; 5.82 µM in experiment [5]; 1.76 µM in experiment [6]. The GI50 is 0.177 µM in experiment [7], 0.0305 µM in experiment [8], 0.516 µM in experiment [9] and 0.0478 µM in experiment [10]. Also, the TGI is greater than 58.7 µM in experiment [1]; 72.5 µM in experiment [2]; greater than 50.1 µM in experiment [3]; greater than 100 µM in [4]; 75.1 µM in experiment [5]; greater than 100 µM in experiment [6]. The TGI in experiment [7] is greater than 100 µM; in experiment [8], 0.116 µM; in [9], greater than 100 µM; in [10], greater than 40 µM.
As to `O=C(/C=C\c1ccc2ccccc2n1)c1cc(Cl)ccc1O`, the GI50 in experiment [1] is 2.48 µM; in [2], 3.68 µM; in [3], 5.49 µM; in experiment [4], 9.41 µM; in experiment [5], 24.3 µM; in [6], 12.2 µM. Moreover, the GI50 in [7] was 3.16 µM; in [8] it was 3.66 µM; in experiment [9], 11.7 µM; in [10] it was 16 µM. The TGI in experiment [1] was found to be 8.11 µM; in experiment [2] it was 19 µM; in experiment [3], 21.5 µM; in experiment [4] it was 38.2 µM; in experiment [5], 63.2 µM; in [6] it was 27.2 µM. The TGI in [7] came to 14.7 µM; in [8], 21.7 µM; in experiment [9] it was 45.2 µM; in [10] it was 42.6 µM.
